Five molecules from ChEMBL document CHEMBL1158951, “Additional bioactive heptenes from Melodorum fruticosum” (1991) can be followed below.

In brackets after ≈: the same amount, converted by molar mass.

What all share (assay type): functional
What all share (conditions): read-out: ED50 (the source's name)

One experiment relates to A549. The experiment is described as follows: Cytotoxicity against human A549 cells.
The subject of the next experiment is MCF7. The experiment is described as follows: Cytotoxicity against human MCF7 cells.
A further experiment has as its system HT-29. In words: Cytotoxicity against human HT-29 cells.
The next experiment deals with SK-MEL-5. The experiment is described as follows: Cytotoxicity against human SK-MEL-5 cells.
For the next experiment, the system named is Malme-3M. The experiment is described as follows: Cytotoxicity against human MALME-3M cells.

With `CCOC(=O)/C=C/C(=O)/C=C/COC(=O)c1ccccc1` [HOMOMELODIENONE], the values for the EC50 with A549, with MCF7 and in the experiment on HT-29 were 36.9 µg/mL (≈ 128 µM), 25.6 µg/mL (≈ 88.8 µM) and 37.9 µg/mL (≈ 131 µM), respectively.
As to `COC(=O)/C=C/C(=O)CC(O)COC(=O)c1ccccc1` (stereo unspecified), the EC50 in the experiment with A549 worked out at 3.28 µg/mL (≈ 11.2 µM); in the experiment with MCF7 it was 1.92 µg/mL (≈ 6.57 µM); in the experiment with HT-29, 0.253 µg/mL (≈ 0.866 µM); in the experiment with SK-MEL-5, 1.04 µg/mL (≈ 3.56 µM); in the experiment on Malme-3M, 1.1 µg/mL (≈ 3.76 µM).
With `CC(=O)OC(/C=C1/C=CC(=O)O1)COC(=O)c1ccccc1` (stereo unspecified) [ACETYLMELODORINOL], the EC50 amounted to 2.89 µg/mL (≈ 9.56 µM) in the experiment on A549; 1.96 µg/mL (≈ 6.48 µM) with MCF7; 2.38 µg/mL (≈ 7.87 µM) with HT-29; 4.21 µg/mL (≈ 13.9 µM) in the experiment on SK-MEL-5; 2.74 µg/mL (≈ 9.06 µM) in the experiment with Malme-3M.
For `CCOC(=O)/C=C\C(=O)/C=C/COC(=O)c1ccccc1` [HOMOISOMELODIENONE], the results for the EC50 with A549, in the experiment on MCF7 and in the experiment with HT-29 were 6.7 µg/mL (≈ 23.2 µM), 4.26 µg/mL (≈ 14.8 µM) and 36.3 µg/mL (≈ 126 µM), respectively.
In the case of `O=C1C=C/C(=C/C(O)COC(=O)c2ccccc2)O1` (stereo unspecified) [MELODORINOL], the EC50 with A549 came to 5.89 µg/mL (≈ 22.6 µM); in the experiment on MCF7, 1.99 µg/mL (≈ 7.65 µM); in the experiment with HT-29, 2.87 µg/mL (≈ 11 µM); with SK-MEL-5, 3.75 µg/mL (≈ 14.4 µM); in the experiment on Malme-3M, 3.32 µg/mL (≈ 12.8 µM).
